In the assay the test system is apomorphine-induced climbing. Kind of assay: Climbing Mice Assay (block of apomorphine-induced climbing). Type of assay: in vivo, CK-1 male mice. The settings on record: Mus musculus, ip, read-out: Antipsychotic Activity (Climbing Mice Assay) ED50. Here is the method:
The subject CK-1 male mice (23-27 grams) are group-housed under standard laboratory conditions. The mice are individually placed in wire mesh stick cages (4"×4" 10) and are allowed one hour for adaptation and exploration of the new environment.
For evaluation of climbing, three readings are taken at 10, 20 and 30 minutes after apomorphine administration according to the following scale: […]
Mice consistently climbing before the injection of apormorphine are discarded.
With full-developed apomorphine climbing, the animals are hanging onto the cage walls, rather motionless, over longer periods of time. By contrast, climbs due to mere motor stimulation usually last only a few seconds.
The climbing scores are individually totaled (maximal score; 6 per mouse over three readings) and the total score of the control group (vehicle intraperitioneally-apomorphine subcutaneously) is set to 100%.

Like-named read-outs stand apart in the source and are kept apart here.

Regarding `COc1cc(C(C)=O)ccc1OCCCN1CCN(c2csc3cc(F)ccc23)CC1` [1-[4-[3-[4-(6-Fluorobenzo[b]thiophen-3-yl)-1-piperazinyl]propoxy]-3-methoxyphenyl]ethanone], the ED50 (CK-1 male mice, compound i.p. 30 minutes prior to apomorphine 1.5 mg/kg s.c., readings at 10, 20 and 30 minutes, linear regression) turned out to be 1.42 mg/kg. For the compound `O=C(CCCN1CCC(O)(c2ccc(Cl)cc2)CC1)c1ccc(F)cc1` [Haloperidol], the ED50 turned out to be 0.33 mg/kg.

The term ED50 denotes the midpoint of the dose-response relation.

Values taken from patent US5240927A, “Benzo[β]thiophen-3-yl piperazines as antipsychotic agents” (Hoechst-Roussel Pharmaceuticals Incorporated, priority 1992, dated 1993).
